This is an account of results in patent publication EP0003788B1, “Glycofuranosyl-nitrosourea derivatives, process for their manufacture and their pharmaceutical preparations” (CIBA-GEIGY AG, priority 1978, dated 1979).

One series has as its system Ehrlich-Ascites-Karzinom. In words: Inhibition of tumour growth, Ehrlich ascites carcinoma in mice. Format: in vivo, Mäusen.
Series [1] in a line: Tolerability and side effects on treatment. The series is classed as in vivo.
Series [2] in a line: Macroscopic organ changes in normal animals after three weeks of peroral treatment. Format: in vivo.
Another series relates to Walker CaSa 256. Nature of the series: Inhibition of tumour growth, Walker CaSa 256 in rats. Format: in vivo, Ratten.
The next series concerns Leukämie L 1210. In words: Prolongation of life, leukaemia L 1210 in mice. Format: in vivo, Mäusen. On the procedure: So bewirken sie in Dosen von 25-500 mg/kg i.p. eine starke Hemmung des Tumorwachstums bei Mäusen mit z.B. Ehrlich-Ascites-Karzinom und bei Ratten mit z.B. Walker CaSa 256. Analoge Dosen bewirken eine Lebensverlängerung gegenüber Kontrollen bei Mäusen mit z.B. Leukämie L 1210.

As for `CCO[C@@H]1O[C@H]([C@@H](CNC(=O)N(C)N=O)OC)[C@H](O)[C@H]1O` [Äthyl-6-desoxy-5-0-methyl-6-(3-methyl-3-nitroso-ureido)-ß-D-glucofuranosid], the “Hemmung des Wachstums der genannten Tumoren” value was 80-100% in the series with Ehrlich-Ascites-Karzinom (50-250 mg/kg i.p., mice with Ehrlich ascites carcinoma); “Ähnliche Resultate” in the series with Ehrlich-Ascites-Karzinom (p.o. application, Ehrlich ascites carcinoma); 80-100% in the series on Walker CaSa 256 (50-250 mg/kg i.p., rats with Walker CaSa 256); “Ähnliche Resultate” in the series on Walker CaSa 256 (p.o. application, Walker CaSa 256). Besides, the Nebenwirkungen result in series [1] (also on prolonged treatment) is given as “nicht festzustellen”. In addition, the Verträglichkeit result in series [1] (in vivo) was “gut”. Moreover, in series [2], the Organveränderungen entry is “keine Organveränderungen”. Further, the Lebensverlängerung was > 90% with Leukämie L 1210 (50-250 mg/kg i.p.) and “Ähnliche Resultate” in the series on Leukämie L 1210 (p.o. application).
